# Laboratory results as given in publication PMC8305236, “New Broth Macrodilution Volatilization Method for Antibacterial Susceptibility Testing of Volatile Agents and Evaluation of Their Toxicity Using Modified MTT Assay In Vitro” (Molecules, 2021).
# Read-outs that look alike come from different tables or passages of the source.
# Tests used:
# [1] = tested on: Streptococcus pyogenes ATCC 19615; experiment: broth macrodilution volatilization method (liquid and vapor phase MIC); format: cell-based; conditions: Streptococcus pyogenes, ATCC19615
# Source text: (§1) The following four bacterial standard strains from the American Type Culture Collection (ATCC, Manassas, VA, USA) were used: Haemophilus influenzae ATCC 49247, Staphylococcus aureus ATCC 29213, Streptococcus pneumoniae ATCC 49619, and Streptococcus pyogenes ATCC 19615. Cultivation and assay media (broth/agar) were Mueller–Hinton (MH) complemented by Haemophilus Tested Medium (H. influenzae), MH (S. aureus), and Brain Heart Infusion (S. pneumoniae and S. pyogenes). The pH of the broths was equilibrated to a final value of 7.6 using Trizma base (Sigma-Aldrich, Praha, Czech Republic). […] cultivation media were purchased from Oxoid (Basingstoke, UK).
# (§2) Stock cultures of bacterial strains were cultivated in broth medium at 37 °C for 24 h prior to testing. For the preparation of inoculum, the turbidity of the bacterial suspension was adjusted to 0.5 McFarland standard using a Densi-La-Meter II (Lachema, Brno, Czech Republic) to obtain a final concentration of 10^8 CFU/mL.
# (§3) The antibacterial potential of volatile plant-derived compounds in the liquid and vapor phases was determined using a newly developed broth macrodilution volatilization method performed in standard 2 mL microtubes with snap caps (Eppendorf, Hamburg, Germany). Initially, each sample of compound was dissolved in DMSO at maximum concentration of 1% and diluted in the appropriate broth medium. […] The concentration of β-thujaplicin started from 1024 µg/mL and from 128 µg/mL for thymohydroquinone and thymoquninone. In the second step, 90 µL of melted agar was pipetted into rims on the caps (Figure 3a) and inoculated with 5 µL of bacterial suspension after agar solidification. Subsequently, the appropriate concentrations of each sample previously prepared in test tubes were pipetted into microtubes in a final volume of 1500 µL. Then, the microtubes were inoculated with 10 µL of bacterial suspension and closed properly (Figure 3b). Microtubes containing inoculated and non-inoculated media were prepared as growth and purity controls simultaneously. After incubation at 37 °C for 24 h, the MICs were evaluated by the visual assessment of bacterial growth after coloring metabolically active bacterial colonies with MTT dye. The respective volumes of 30 and 375 µL of MTT at a concentration of 600 µg/mL were pipetted into the caps and in the microtubes when the interface of color change from yellow to purple (relative to that of colors in control wells) was recorded in broth and agar (Figure 3c). […] The MIC values were determined as the lowest concentrations that inhibited bacterial growth compared with the compound-free control and are expressed in µg/mL. In the case of the vapor phase, the concentration was also expressed in µg/cm^3 as the weight of the volatile agent per volume unit of a microtube. […] The respective susceptibilities of H. influenzae, S. aureus, S. pneumoniae, and S. pyogenes to ampicillin, oxacillin, amoxicillin, and tetracycline were checked as positive antibiotic controls. All tests were performed as three independent experiments, each carried out in triplicate, and the results were presented as median/modal values. According to the widely accepted norm in MIC testing, the mode and median were used for the final value calculation when triplicate endpoints were within the two- and three-dilution ranges, respectively.
# [2] = tested on: normal lung fibroblast cells MRC-5; experiment: modified MTT cytotoxicity assay; conditions: for IC50: Homo sapiens, MRC5, 72 h, read-out: IC50 ± SD; for level of cytotoxic effect (WHO classification): classified by IC50 in lung fibroblast cells; for TI: therapeutic index, TI = IC80/x¯ -MIC
# Method: (§4) Lung fibroblast cell line MRC-5, obtained from ATCC, was propagated in Eagle’s Minimum Essential Medium (EMEM) supplemented with 10% fetal bovine serum (FBS), 2 mM glutamine, 10 µL/mL non-essential amino acids, and 1% penicillin–streptomycin solution (10,000 units/mL of penicillin and 10 mg/mL of streptomycin); all these components were purchased from Sigma-Aldrich. The cells were pre-incubated in 96-well microtiter plates at a density of 2.5 × 10^3 cells per well for 24 h at 37 °C in a humidified incubator in an atmosphere of 5% CO2 in air.
# (§5) A modified method based on the metabolization of MTT to blue formazan by mitochondrial dehydrogenases in living lung cells previously described by Mosmann was used. The lung fibroblast cells were treated for 72 h with the tested compounds dissolved in DMSO at a maximum concentration of 1% and diluted in the EMEM medium supplemented with 10% FBS. Twelve two-fold serially diluted concentrations of these agents ranging from 512 to 0.25 µg/mL were prepared. The microtiter plates were covered with EVA capmats^TM at 37 °C in a humidified atmosphere of 5% CO2 in air and cultivated for 72 h. Thereafter, MTT reagent (1 mg/mL) in EMEM solution was added to each well and the plates were incubated for an additional 2 h at 37 °C in a humidified atmosphere of 5% CO2 in air. The media were removed, and the intracellular formazan product was dissolved in 100 µL of DMSO. […] The absorbance was measured at 555 nm using a Tecan Infinite M200 spectrometer (Tecan Group, Mannedorf, Switzerland), and the viability was calculated in comparison to that of the untreated control. Three independent experiments (two replicates each) were performed for each test. […] Furthermore, IC80 was calculated as equivalent to the MIC endpoint for comparison of microbiological and toxicological data. Therapeutic indices (TIs) were defined as the ratio of x¯ -IC80 and x¯ -MIC values with the aim of determining the amount of effective antibacterial agents with the quantity causing toxicity.
# [3] = modified MTT cytotoxicity assay; conditions: human, MRC-5 normal lung fibroblast cells
# Method: as §4, §5
# S. aureus [4] = conditions: cited from earlier work
# respiratory pathogens = experiment: broth macrodilution volatilization method, all four bacteria together; format: cell-based; conditions: mean value of minimal inhibitory concentrations in broth medium
# Source text: as §1, §2
# The antibacterial potential of volatile plant-derived compounds in the liquid and vapor phases was determined using a newly developed broth macrodilution volatilization method performed in standard 2 mL microtubes with snap caps (Eppendorf, Hamburg, Germany). Initially, each sample of compound was dissolved in DMSO at maximum concentration of 1% and diluted in the appropriate broth medium. […] After incubation at 37 °C for 24 h, the MICs were evaluated by the visual assessment of bacterial growth after coloring metabolically active bacterial colonies with MTT dye. The respective volumes of 30 and 375 µL of MTT at a concentration of 600 µg/mL were pipetted into the caps and in the microtubes when the interface of color change from yellow to purple (relative to that of colors in control wells) was recorded in broth and agar (Figure 3c). […] The MIC values were determined as the lowest concentrations that inhibited bacterial growth compared with the compound-free control and are expressed in µg/mL. […]
# mouse fibroblasts = tested on: mouse fibroblasts; design: method as in PMID 17080016; conditions: cited from earlier work
# [5] = tested on: Haemophilus influenzae ATCC 49247; experiment: broth macrodilution volatilization method (liquid and vapor phase MIC); format: cell-based
# Source text: as §1, §2, §3
# [6] = tested on: Streptococcus pneumoniae ATCC 49619; experiment: as above; format: cell-based; conditions: Streptococcus pneumoniae, ATCC49619
# Source text: as §1, §2, §3
# [7] = tested on: Staphylococcus aureus ATCC 29213; experiment: as above; format: cell-based
# Source text: as §1, §2, §3
# S. aureus [8] = tested on: S. aureus; design: method as in PMID 28223069; conditions: cited from earlier work
# [9] = tested on: healthy human lung MRC-5 cell lines; design: method as in PMID 28223069; conditions: cited from earlier work
# [10] = tested on: normal IMR-90 lung fibroblasts; design: method as in PMID 20711342; conditions: at a concentration of 32.84 µg/mL; cited from earlier work
# H. influenzae = tested on: H. influenzae; design: method as in PMID 28223069; conditions: cited from earlier work
# S. pneumoniae = tested on: S. pneumoniae; design: method as in PMID 28223069; conditions: cited from earlier work
# [11] = tested on: Trichophyton mentagrophytes; design: method as in PMID 16648950; conditions: disc volatilization method; cited from earlier work
# [12] = liquid phase, 37 °C, 24 h, read-out: Minimal Inhibitory Concentration, Broth
# [13] = vapor phase, 37 °C, 24 h, read-out: Minimal Inhibitory Concentration, Agar
# [14] = vapor phase, weight of volatile agent per volume unit of microtube, read-out: Minimal Inhibitory Concentration, Agar
# [15] = ATCC29213, liquid phase, 37 °C, 24 h, read-out: Minimal Inhibitory Concentration, Broth
# [16] = ATCC29213, vapor phase, 37 °C, 24 h, read-out: Minimal Inhibitory Concentration, Agar
# [17] = ATCC29213, vapor phase, weight of volatile agent per volume unit of microtube, read-out: Minimal Inhibitory Concentration, Agar
# [18] = ATCC49247, liquid phase, 37 °C, 24 h, read-out: Minimal Inhibitory Concentration, Broth
smiles,measurement,setting,value
"CN(C)[C@@H]1C(O)=C(C(N)=O)C(=O)[C@@]2(O)C(O)=C3C(=O)c4c(O)cccc4[C@@](C)(O)[C@H]3C[C@@H]12 [tetracycline, reference compound]",MIC,[1]; [12],0.25 µg/mL
Cc1cc(O)c(C(C)C)cc1O [thymohydroquinone],IC50,[2],2.64 ± 0.33 µg/mL
same,level of cytotoxic effect (WHO classification),[2],moderate toxicity
same,TI,[2],>34.13
same,IC80 at 72 h,[3],> 512 µg/mL
same,MIC,S. aureus [4]; S. aureus ATCC 25923,400 µg/mL
same,x¯ -MIC,respiratory pathogens,15 µg/mL
same,cell growth inhibition,mouse fibroblasts; at 10 µg/mL,21%
same,cell growth inhibition,mouse fibroblasts; at 100 µg/mL,63%
same,MIC,[1]; [12],32 µg/mL
same,MIC,[1]; [13],32 µg/mL
same,MIC,[1]; [14],20 µg/mL
same,MIC,"[5]; ATCC49247, 24 h, read-out: Minimal Inhibitory Concentration, Agar",8 µg/mL
same,MIC,"[5]; ATCC49247, 24 h, read-out: Minimal Inhibitory Concentration, Broth",4 µg/mL
same,MIC,"[5]; ATCC49247, read-out: Minimal Inhibitory Concentration, Agar",5 µg/mL
same,MIC,[6]; [12],16 µg/mL
same,MIC,[6]; [13],32 µg/mL
same,MIC,[6]; [14],20 µg/mL
same,MIC,[7]; [15],8 µg/mL
same,MIC,[7]; [16],16 µg/mL
same,MIC,[7]; [17],10 µg/mL
"CC1(C)S[C@@H]2[C@H](NC(=O)[C@H](N)c3ccccc3)C(=O)N2[C@H]1C(=O)O [ampicillin, reference compound]",MIC,[5]; [18],1 µg/mL
CC1=CC(=O)C(C(C)C)=CC1=O [thymoquinone],IC50,[2],1.21 ± 0.24 µg/mL
same,level of cytotoxic effect (WHO classification),[2],toxic
same,TI,[2],1.00
same,IC80 at 72 h,[3],15 ± 4.46 µg/mL
same,"MIC, liquid phase",S. aureus [8]; liquid phase,16 µg/mL
same,"MIC, vapor phase",S. aureus [8]; vapor phase,16 µg/mL
same,MIC,S. aureus [4]; S. aureus ATCC 29213 and ATCC 25923,8 µg/mL
same,IC50,[9],1.70 µg/mL
same,effect on viability,[10],did not alter the viability
same,x¯ -MIC,respiratory pathogens,15 µg/mL
same,"MIC, liquid phase",H. influenzae; liquid phase,8 µg/mL
same,"MIC, vapor phase",H. influenzae; vapor phase,8 µg/mL
same,"MIC, liquid phase",S. pneumoniae; liquid phase,16 µg/mL
same,"MIC, vapor phase",S. pneumoniae; vapor phase,32 µg/mL
same,MIC,[1]; [12],32 µg/mL
same,MIC,[1]; [13],32 µg/mL
same,MIC,[1]; [14],20 µg/mL
same,MIC,[5]; [18],4 µg/mL
same,MIC,"[5]; ATCC49247, vapor phase, 37 °C, 24 h, read-out: Minimal Inhibitory Concentration, Agar",8 µg/mL
same,MIC,"[5]; ATCC49247, vapor phase, weight of volatile agent per volume unit of microtube, read-out: Minimal Inhibitory Concentration, Agar",5 µg/mL
same,MIC,[6]; [12],16 µg/mL
same,MIC,[6]; [13],16 µg/mL
same,MIC,[6]; [14],10 µg/mL
same,MIC,[7]; [15],8 µg/mL
same,MIC,[7]; [16],16 µg/mL
same,MIC,[7]; [17],10 µg/mL
same,vapor activity,[11],very potent vapor activity
